Assay in all cases: inhibition of tumour cell growth, NCI panel, 48 h
The subject of assay [1] is CAKI-1 renal.
For assay [2], the system named is HOP-92 NSCLC.
Assay [3] relates to HT29 colon.
In assay [4] the test system is IGROV1 ovarian.
The subject of assay [5] is K-562 leukemia.
Assay [6] relates to KM12 colon.
Assay [7] has as its system LOX IMVI melanoma.
Assay [8] has as its system RXF 393 renal.
Assay [9] deals with SK-OV-3 ovarian.
The subject of assay [10] is SN12C renal.

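Each compound was tested at five concentrations against cells in 96-well plates for 48 hours. At the GI50, growth is halved. TGI is the concentration that stops growth completely.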

For `COc1ccc2[nH]c(C(=O)N3CCN(C(=O)OCc4ccc5c(Cl)cc(Cl)c(O)c5n4)CC3)cc2c1`, the GI50 is 0.357 µM in assay [1]; 0.864 µM in assay [2]; 1.08 µM in assay [3]; 0.527 µM in assay [4]; 0.543 µM in assay [5]; 1.69 µM in [6]. Further, the GI50 in assay [7] was 1.43 µM; in assay [8], 0.557 µM; in [9] it was 5.36 µM; in assay [10], 1.27 µM. Besides, the TGI was determined as 1.65 µM in assay [1]; 2.4 µM in assay [2]; 2.48 µM in assay [3]; 1.86 µM in assay [4]; 4.41 µM in [5]; 3.68 µM in assay [6]. Also, the TGI was 2.81 µM in assay [7], 1.81 µM in [8], 17.6 µM in assay [9] and 2.56 µM in assay [10].

As for `CC1(C)CC(C)(C)c2cc(NC(=S)Nc3ccc([N+](=O)[O-])cc3)ccc2S1`, the GI50 in assay [1] is 11.5 µM; in assay [2], 19.1 µM; in assay [3], 24.1 µM; in assay [4], 10.5 µM; in assay [5], 10.8 µM; in assay [6], 10.9 µM. In addition, the GI50 in assay [7] is 12.4 µM; in assay [8] it was 17.9 µM; in [9], 16.5 µM; in assay [10] it was 10.3 µM. Also, the TGI in [1] is 32.1 µM; in [2], 36.5 µM; in assay [3] it was more than 100 µM; in [4], 29 µM; in assay [5], more than 60 µM; in assay [6], 34.8 µM. Also, the TGI was 31.9 µM in assay [7], 51.8 µM in assay [8], 54.8 µM in [9] and 22.2 µM in assay [10].

Take `NCCO/C=C/C(N)C(=O)O` (stereo not given): the TGI in [1], in assay [2], in assay [3], in [4], in assay [5] and in [6] was more than 100 µM throughout. For the same compound, the TGI in [7], in assay [8], in assay [9] and in [10] was more than 100 µM throughout.

On to `O=C(Nc1n[nH]c2cc(-c3cc(F)ccc3F)ccc12)C1CC1`, for which the GI50 is more than 20.9 µM in [1]; more than 25 µM in assay [2]; 9.42 µM in [3]; more than 25 µM in [4]; 7.47 µM in [5]; 8.08 µM in assay [6]. The GI50 in [7] was 14.4 µM; in [8] it was 17.3 µM; in assay [9], 11.1 µM; in assay [10], 15.7 µM. For the same compound, the TGI in assay [1], in assay [2], in [3], in assay [4], in assay [5] and in assay [6] was more than 25 µM each time. Also, the TGI in [7], in assay [8], in assay [9] and in assay [10] was more than 25 µM in each case.

On to `CCC[CH2][Sn-]([CH2]CCC)([CH2]CCC)[O]C(=O)C(C)C`, for which the GI50 in assay [1] is 0.122 µM; in [2], 0.037 µM; in assay [3], 0.0573 µM; in assay [4], 0.166 µM; in assay [5], 0.146 µM; in assay [6], 0.0347 µM. For the same compound, the GI50 was 0.0816 µM in [7], 0.107 µM in [8], 0.151 µM in assay [9] and 0.158 µM in assay [10]. In addition, the TGI is 0.279 µM in assay [1]; 0.162 µM in [2]; 0.208 µM in [3]; 0.324 µM in assay [4]; 0.315 µM in assay [5]; 0.145 µM in [6]. Besides, the TGI came to 0.215 µM in assay [7], 0.237 µM in [8], 0.293 µM in assay [9] and 0.318 µM in assay [10].

As for `O=C(CC1=Nc2nnc(CCCCCCCc3nnc4n3C(=O)C(CC(=O)c3ccc5ccccc5c3)=N4)n2C1=O)c1ccc2ccccc2c1`, the TGI in [1], in assay [2], in assay [3], in assay [4], in [5] and in [6] was more than 100 µM each time. Also, the TGI in assay [7], in [8], in [9] and in [10] was more than 100 µM each time.

As to `COC(=O)C1CC(c2ccc(OC)c(OC)c2)OC1=O` (mixture of isomers), the TGI in assay [1], in assay [2], in assay [3], in assay [4], in assay [5] and in assay [6] was more than 100 µM in each case. In addition, the TGI in assay [7], in assay [8], in assay [9] and in [10] was more than 100 µM in each case.

In the case of `CCCC(=O)O[C@]1(C)CC[C@@H]2[C@H]3[C@@H]1[C@@H]1C[C@@](C)(O)[C@H](OC)CC[C@](C)(OC(=O)[C@@H]2C)[C@H]3O1`, the GI50 in assay [1] is 18.6 µM; in assay [2] it was 17.6 µM; in [3], 26.9 µM; in assay [4], 24.9 µM; in assay [5], 14.4 µM; in assay [6], 19.4 µM. Further, the GI50 is 66.9 µM in assay [7], 23.2 µM in assay [8], 31 µM in assay [9] and 24.8 µM in [10]. The TGI in assay [1] was found to be 39.8 µM; in [2], 31.4 µM; in assay [3] it was 69.7 µM; in assay [4], 62 µM; in assay [5] it was 27.5 µM; in assay [6] it was 44.7 µM. Further, the TGI in assay [7] is more than 100 µM; in [8] it was 72.9 µM; in [9], 97.1 µM; in assay [10], 59.5 µM.

Values taken from PubChem BioAssay (NCI).
